The values that follow come from patent publication US20240327364A1, “THERAPEUTIC TARGETING OF GPR68 TO INDUCE FERROPTOSIS” (University Of Maryland, Baltimore, priority 2023, published 2024).

Assay [1] addresses T1, PIK3CA(H1047Y) (Homo sapiens, UniProt P42336, H1047Y).
T1 construct: purchased DiscoveRx (Fremont, CA)
Nature of the assay: KinomeScan. It counts as binding. The following applies: read-out: % Control.

Assay [2] addresses T2, PFTAIRE2 (Homo sapiens, UniProt Q96Q40).
T2 construct: purchased DiscoveRx (Fremont, CA)
Nature of the assay: KinomeScan. It counts as binding. The following applies: read-out: % Control.

Assay [3] addresses T3, p38-beta (Homo sapiens, UniProt Q15759).
T3 construct: purchased DiscoveRx
Nature of the assay: KinomeScan. It counts as binding. The note with it: read-out: % Control.

Assay [4] has as its target T4, MEK3 (Homo sapiens, UniProt P46734).
T4 construct: purchased DiscoveRx (Fremont, CA)
Nature of the assay: KinomeScan. It counts as binding. The following applies: read-out: % Control.

For assay [5], the target named is T5, TYK2(JH2domain-pseudokinase) (Homo sapiens, UniProt P29597).
T5 construct: TYK2(JH2domain-pseudokinase); purchased DiscoveRx
T5 sequence (P29597 589-875 limits assumed): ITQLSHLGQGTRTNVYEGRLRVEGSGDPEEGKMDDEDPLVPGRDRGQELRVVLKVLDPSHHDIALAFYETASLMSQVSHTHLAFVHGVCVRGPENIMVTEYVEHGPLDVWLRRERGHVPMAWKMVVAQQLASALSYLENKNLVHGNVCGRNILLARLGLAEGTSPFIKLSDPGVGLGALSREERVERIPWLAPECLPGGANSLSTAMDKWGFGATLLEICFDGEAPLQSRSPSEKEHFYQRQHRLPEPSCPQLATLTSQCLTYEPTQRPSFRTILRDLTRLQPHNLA
Nature of the assay: KinomeScan. It counts as binding. The note with it: read-out: % Control.

Assay [6] addresses T6, P2Y4 (Homo sapiens, UniProt P51582).
T6 construct: host or cells: Chem-1 cells with Gα15
Nature of the assay: GPCR Profiler. It counts as cell-based.

Assay [7] addresses CSNK2A2 (Homo sapiens, UniProt P19784). Nature of the assay: KinomeScan. It counts as binding. The following applies: read-out: % Control.
For assay [8], the target named is T7, FLT3(N841I) (Homo sapiens, UniProt P36888, N841I).
T7 construct: purchased DiscoveRx (Fremont, CA)
Nature of the assay: KinomeScan. It counts as binding. The following applies: read-out: % Control.

Assay [9] has as its target T8, RET(V804L) (Homo sapiens, UniProt P07949, V804L).
T8 construct: purchased DiscoveRx (Fremont, CA)
Nature of the assay: KinomeScan. It counts as binding. The following applies: read-out: % Control.

The target in assay [10] is T9, S1P2 (Homo sapiens, UniProt O95136).
T9 construct: host or cells: Chem-1 cells with Gα15
T9 sequence (O95136 whole entry, species assumed): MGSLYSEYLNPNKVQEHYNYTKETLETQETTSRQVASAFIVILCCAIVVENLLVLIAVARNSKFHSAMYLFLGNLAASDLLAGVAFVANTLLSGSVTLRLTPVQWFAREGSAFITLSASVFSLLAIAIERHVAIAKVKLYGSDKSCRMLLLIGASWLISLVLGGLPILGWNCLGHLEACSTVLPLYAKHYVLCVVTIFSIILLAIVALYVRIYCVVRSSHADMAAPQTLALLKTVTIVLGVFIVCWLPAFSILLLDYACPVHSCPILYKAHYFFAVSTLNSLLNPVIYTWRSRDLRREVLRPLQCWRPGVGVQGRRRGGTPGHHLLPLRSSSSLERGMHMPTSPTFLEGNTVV
Nature of the assay: GPCR Profiler. It counts as cell-based.

Assay [11] deals with T10, ULK2 (Homo sapiens, UniProt Q8IYT8).
T10 construct: purchased DiscoveRx
Nature of the assay: KinomeScan. It counts as binding. The note with it: read-out: % Control.

The target of assay [12] is T11, sst3 (Homo sapiens, UniProt P32745).
T11 construct: host or cells: Chem-1 cells with Gα15
T11 sequence (P32745 whole entry, species assumed): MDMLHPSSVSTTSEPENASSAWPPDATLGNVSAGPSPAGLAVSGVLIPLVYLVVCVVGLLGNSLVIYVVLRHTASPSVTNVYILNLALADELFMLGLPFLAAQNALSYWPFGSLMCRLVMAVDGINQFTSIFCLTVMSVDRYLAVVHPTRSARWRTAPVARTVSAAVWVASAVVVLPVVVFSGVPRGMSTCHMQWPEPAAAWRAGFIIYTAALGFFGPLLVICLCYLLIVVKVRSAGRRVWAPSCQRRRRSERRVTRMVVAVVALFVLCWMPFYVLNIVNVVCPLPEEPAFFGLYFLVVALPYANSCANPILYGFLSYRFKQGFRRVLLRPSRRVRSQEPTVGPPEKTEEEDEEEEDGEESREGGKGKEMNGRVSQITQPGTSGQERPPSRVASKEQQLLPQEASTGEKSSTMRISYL
Nature of the assay: GPCR Profiler. It counts as cell-based.

Assay [13] concerns the target T12, HCK (Homo sapiens, UniProt P08631).
T12 construct: purchased DiscoveRx (Fremont, CA)
Nature of the assay: KinomeScan. It counts as binding. The note with it: read-out: % Control.

Assay [14] has as its target T13, HIPK1 (Homo sapiens, UniProt Q86Z02).
T13 construct: purchased DiscoveRx (Fremont, CA)
Nature of the assay: KinomeScan. It counts as binding. The note with it: read-out: % Control.

Assay [15] has as its target T14, NEK3 (Homo sapiens, UniProt P51956).
T14 construct: purchased DiscoveRx
Nature of the assay: KinomeScan. It counts as binding. The note with it: read-out: % Control.

Assay [16] addresses T15, ABL1(Y253F)-phosphorylated (Homo sapiens, UniProt P00519, Y253F).
T15 construct: purchased DiscoveRx
Nature of the assay: KinomeScan. It counts as binding. The following applies: read-out: % Control.

For assay [17], the target named is T16, ERK8 (Homo sapiens, UniProt Q8TD08).
T16 construct: purchased DiscoveRx (Fremont, CA)
Nature of the assay: KinomeScan. It counts as binding. The following applies: read-out: % Control.

For assay [18], the system named is U87. Nature of the assay: 2D cell growth/viability. It counts as cell-based, human. The note with it: 72 hours. On the procedure:
(§1) GBM neurospheres and low passage PDX models were plated in 96-well plates at 10,000 cells per well in 50 μL of neural stem cell media. The next day, the cells were treated with OGM2 compounds at the indicated concentrations, in triplicates, by adding an equal volume of medium containing 2× the final concentration of compound. Following 72 hours incubation under standard cell culture conditions, relative cell number was assessed using Cell Titer-Glo Luminescent Cell Viability Assay (Promega™) following the manufacturer's instructions. Luminescence was determined using a Cytation 5 reader and Gen5 software package (BioTek™). For U87 and U138 cell lines, one thousand cells were plated per well in a standard 96-well plate and allowed to attach for 24 hours before exposure to concentrations of vehicle, OGM2, or TMZ. Cells were treated for 72 hours and then stained with DAPI. A 10× magnification lens on a LionheartFX (BioTek™) was used to image the wells, and images were stitched together with Gen5 software (BioTek™). Automated nuclei counting was also done using the Gen5 software. Results reported as percent response relative to DMSO control. IC50 (the concentration causing 50% inhibition) was determined by GraphPad Prism™ version 6.07.
(§2) Temozolomide is the standard of care for glioblastoma but only works on 30% of patients. […]

For assay [19], the system named is U138. Nature of the assay: 2D cell growth/viability. It counts as cell-based, human. On the procedure: as §1, §2

T6 sequence (P51582 whole entry, species assumed): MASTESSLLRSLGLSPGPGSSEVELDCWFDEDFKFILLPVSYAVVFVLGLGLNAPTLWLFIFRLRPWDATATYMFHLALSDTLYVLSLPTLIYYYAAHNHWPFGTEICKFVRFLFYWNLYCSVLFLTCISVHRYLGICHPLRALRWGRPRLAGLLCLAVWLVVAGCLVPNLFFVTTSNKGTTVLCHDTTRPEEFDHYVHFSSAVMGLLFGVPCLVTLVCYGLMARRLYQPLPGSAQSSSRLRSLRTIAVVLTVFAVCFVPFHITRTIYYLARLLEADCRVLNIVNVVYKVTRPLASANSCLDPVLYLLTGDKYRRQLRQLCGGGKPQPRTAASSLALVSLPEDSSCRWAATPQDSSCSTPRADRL
T8 sequence (P07949 29-1114 V804L): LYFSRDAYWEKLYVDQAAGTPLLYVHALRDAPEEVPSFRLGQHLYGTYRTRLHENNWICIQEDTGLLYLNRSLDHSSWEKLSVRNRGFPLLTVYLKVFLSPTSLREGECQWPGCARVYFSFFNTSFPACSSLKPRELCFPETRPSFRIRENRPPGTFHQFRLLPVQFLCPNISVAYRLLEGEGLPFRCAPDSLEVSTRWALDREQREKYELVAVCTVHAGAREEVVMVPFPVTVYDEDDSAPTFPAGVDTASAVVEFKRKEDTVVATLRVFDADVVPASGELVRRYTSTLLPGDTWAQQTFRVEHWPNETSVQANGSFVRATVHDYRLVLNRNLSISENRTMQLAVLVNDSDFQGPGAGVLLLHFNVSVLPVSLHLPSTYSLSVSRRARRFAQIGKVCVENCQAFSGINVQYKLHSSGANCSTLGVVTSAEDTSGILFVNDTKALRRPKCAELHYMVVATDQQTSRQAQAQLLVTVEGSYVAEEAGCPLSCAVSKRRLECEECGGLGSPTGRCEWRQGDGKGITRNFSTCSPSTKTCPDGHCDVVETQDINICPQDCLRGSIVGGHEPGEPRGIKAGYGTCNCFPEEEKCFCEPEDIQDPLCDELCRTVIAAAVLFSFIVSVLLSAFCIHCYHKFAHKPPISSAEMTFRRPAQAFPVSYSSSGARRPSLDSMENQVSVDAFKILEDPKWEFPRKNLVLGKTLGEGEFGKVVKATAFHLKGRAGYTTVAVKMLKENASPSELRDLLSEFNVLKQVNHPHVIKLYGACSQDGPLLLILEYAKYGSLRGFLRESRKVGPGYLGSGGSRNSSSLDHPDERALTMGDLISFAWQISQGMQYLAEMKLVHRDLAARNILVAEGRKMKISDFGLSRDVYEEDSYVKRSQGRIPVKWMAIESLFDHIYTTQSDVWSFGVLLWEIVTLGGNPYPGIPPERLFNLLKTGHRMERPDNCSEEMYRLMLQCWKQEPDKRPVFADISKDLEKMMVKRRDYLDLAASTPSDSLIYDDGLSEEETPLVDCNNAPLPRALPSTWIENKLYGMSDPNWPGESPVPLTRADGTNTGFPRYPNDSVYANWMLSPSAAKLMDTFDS
T14 sequence (P51956 whole entry): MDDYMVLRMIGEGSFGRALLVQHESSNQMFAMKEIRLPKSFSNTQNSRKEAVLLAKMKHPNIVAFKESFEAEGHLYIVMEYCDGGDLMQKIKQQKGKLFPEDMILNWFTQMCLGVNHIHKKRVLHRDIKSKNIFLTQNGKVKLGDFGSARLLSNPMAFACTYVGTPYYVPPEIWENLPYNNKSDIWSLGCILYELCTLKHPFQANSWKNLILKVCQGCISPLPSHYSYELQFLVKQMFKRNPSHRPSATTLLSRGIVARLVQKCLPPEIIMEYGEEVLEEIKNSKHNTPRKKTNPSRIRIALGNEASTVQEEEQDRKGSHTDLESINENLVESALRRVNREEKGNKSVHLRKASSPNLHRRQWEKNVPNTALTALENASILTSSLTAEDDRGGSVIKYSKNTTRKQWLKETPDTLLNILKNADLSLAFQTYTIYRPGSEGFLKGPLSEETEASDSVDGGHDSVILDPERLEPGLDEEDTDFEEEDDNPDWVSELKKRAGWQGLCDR
T13 sequence (Q86Z02 whole entry): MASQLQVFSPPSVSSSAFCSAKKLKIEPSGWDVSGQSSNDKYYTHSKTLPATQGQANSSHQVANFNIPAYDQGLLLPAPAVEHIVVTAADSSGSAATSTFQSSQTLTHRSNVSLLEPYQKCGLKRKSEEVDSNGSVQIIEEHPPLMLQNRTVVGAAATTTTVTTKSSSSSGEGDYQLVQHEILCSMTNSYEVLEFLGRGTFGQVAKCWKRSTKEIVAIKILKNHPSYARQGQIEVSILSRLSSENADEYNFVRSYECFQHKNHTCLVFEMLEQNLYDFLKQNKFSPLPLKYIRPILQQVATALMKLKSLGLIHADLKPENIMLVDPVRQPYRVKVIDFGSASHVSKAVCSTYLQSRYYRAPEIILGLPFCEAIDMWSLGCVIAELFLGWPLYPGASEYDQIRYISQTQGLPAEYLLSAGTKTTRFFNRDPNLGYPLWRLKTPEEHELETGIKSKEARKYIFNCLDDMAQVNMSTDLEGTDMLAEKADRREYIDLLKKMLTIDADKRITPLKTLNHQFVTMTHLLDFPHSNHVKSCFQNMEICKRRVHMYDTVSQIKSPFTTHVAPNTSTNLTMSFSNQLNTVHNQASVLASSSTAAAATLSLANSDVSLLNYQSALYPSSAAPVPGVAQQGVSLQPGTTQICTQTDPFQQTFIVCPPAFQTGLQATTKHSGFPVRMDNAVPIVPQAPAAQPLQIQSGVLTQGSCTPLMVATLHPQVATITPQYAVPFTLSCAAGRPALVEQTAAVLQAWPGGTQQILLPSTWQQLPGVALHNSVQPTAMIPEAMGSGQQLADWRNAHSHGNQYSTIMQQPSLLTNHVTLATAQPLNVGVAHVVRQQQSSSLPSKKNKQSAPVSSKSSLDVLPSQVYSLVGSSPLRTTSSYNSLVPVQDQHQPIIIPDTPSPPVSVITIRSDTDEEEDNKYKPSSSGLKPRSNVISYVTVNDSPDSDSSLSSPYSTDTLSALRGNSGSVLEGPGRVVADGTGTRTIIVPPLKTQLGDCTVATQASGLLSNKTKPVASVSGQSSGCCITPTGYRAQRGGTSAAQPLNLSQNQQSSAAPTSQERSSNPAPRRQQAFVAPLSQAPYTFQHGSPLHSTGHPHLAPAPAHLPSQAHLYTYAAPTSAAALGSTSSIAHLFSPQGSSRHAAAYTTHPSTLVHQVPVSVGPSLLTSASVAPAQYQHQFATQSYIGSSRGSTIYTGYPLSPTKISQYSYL
Chain of CSNK2A2 (P19784 whole entry): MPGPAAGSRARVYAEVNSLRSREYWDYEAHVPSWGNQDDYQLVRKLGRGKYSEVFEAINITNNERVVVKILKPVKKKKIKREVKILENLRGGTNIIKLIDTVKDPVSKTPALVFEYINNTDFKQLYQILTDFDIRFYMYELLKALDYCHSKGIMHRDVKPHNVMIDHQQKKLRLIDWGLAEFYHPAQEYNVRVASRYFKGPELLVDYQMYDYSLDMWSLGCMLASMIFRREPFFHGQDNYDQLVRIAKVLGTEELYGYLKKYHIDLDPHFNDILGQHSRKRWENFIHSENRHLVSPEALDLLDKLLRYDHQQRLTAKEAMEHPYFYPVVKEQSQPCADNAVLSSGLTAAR
T2 sequence (Q96Q40 whole entry): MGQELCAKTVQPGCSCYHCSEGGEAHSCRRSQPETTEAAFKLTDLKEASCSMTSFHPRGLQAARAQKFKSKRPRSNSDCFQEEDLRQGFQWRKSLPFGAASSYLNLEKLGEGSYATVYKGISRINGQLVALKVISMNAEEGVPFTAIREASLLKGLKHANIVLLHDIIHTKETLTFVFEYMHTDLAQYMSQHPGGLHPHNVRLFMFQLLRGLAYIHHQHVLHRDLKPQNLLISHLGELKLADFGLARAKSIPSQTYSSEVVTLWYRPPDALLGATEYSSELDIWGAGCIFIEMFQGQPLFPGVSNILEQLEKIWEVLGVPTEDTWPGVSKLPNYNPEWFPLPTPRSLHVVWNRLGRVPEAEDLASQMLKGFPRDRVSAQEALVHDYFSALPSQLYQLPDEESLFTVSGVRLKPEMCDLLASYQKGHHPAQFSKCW

Consider `CCc1ccc2c(c1)C1(NN=C(c3cccc4ccccc34)S1)C(=O)N2` (stereo not shown) [OGM1, 5-ethyl-5′-naphthalen-1-ylspiro[1H-indole-3,2′-3H-1,3,4-thiadiazole]-2-one], for which the remaining binding at 10 µM is 59% in assay [1]; 93% in [2]; 100% in assay [3]; 100% in assay [4]; 100% in [5]; 93% in assay [7]. The remaining binding at 10 µM turned out to be 91% in [8]; 90% in assay [9]; 100% in assay [11]; 96% in [13]; 99% in [14]; 71% in assay [15]. Moreover, the remaining binding at 10 µM in [16] was determined as 80%; in assay [17], 100%. Also, the Antagonism is 5.4 in assay [6] (10 uM), −3.3 in assay [10] (10 uM) and 0 in assay [12] (10 uM). Also, the Agonism is recorded as −0.8 in [6] (12.5 uM), 0.5 in [10] (12.5 uM) and 0 in assay [12] (12.5 uM).
`CCc1ccc2c(c1)C1(NN=C(c3ccccc3)S1)C(=O)N2` (stereo not shown) [OGM2]: in assay [18], the “cell growth, comparison with Temozolomide” value is “more potent inhibitor of U87 cell growth in 2D cell assay than Temozolomide”. Besides, the “cell growth in 2D culture” value in assay [19] is on record as “caused dose-dependent inhibition of U138 cell growth”.
